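1) Cells in 96-well plates. 2) Compound, 48 h, 5 concentrations. 3) Linear interpolation between surrounding doses. 4) Unreached endpoint = highest concentration. GI50 = concentration required for 50% inhibition of growth.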 Calls of active or inactive are those of the source. Cut-off read from the data, not from the text of the source: active = GI50 up to about 1.1 µM and inactive = higher.
Key:
Assay in all cases: inhibition of tumour cell growth, NCI panel, 48 h
OVCAR-8 = test system: OVCAR-8
NCI-H460 = test system: NCI-H460
SF-295 = test system: SF-295
NCI-H522 = test system: NCI-H522
U-251 = test system: U-251
A549 = test system: A549
HOP-62 = test system: HOP-62
KM-20L2 = test system: KM-20L2
SR = test system: SR
DMS-273 = test system: DMS-273
DU-145 = test system: DU-145
SK-MEL-2 = test system: SK-MEL-2
XF498 = test system: XF498
Hs-578T = test system: Hs-578T
K562 = test system: K562
MDA-MB-435 = test system: MDA-MB-435
SK-MEL-5 = test system: SK-MEL-5
CCRF-CEM = test system: CCRF-CEM
COLO 205 = test system: COLO 205
HCT-116 = test system: HCT-116
SF-539 = test system: SF-539
KM12 = test system: KM12
Malme-3M = test system: Malme-3M
LXFL 529 = test system: LXFL 529
HOP-18 = test system: HOP-18
DLD-1 = test system: DLD-1
IGROV-1 = test system: IGROV-1
NCI-H226 = test system: NCI-H226
SN12C = test system: SN12C
HCC 2998 = test system: HCC 2998
OVCAR-4 = test system: OVCAR-4
SNB-78 = test system: SNB-78
SNB-75 = test system: SNB-75
M14 = test system: M14
TK-10 = test system: TK-10
HCT-15 = test system: HCT-15
UO-31 = test system: UO-31
UACC-62 = test system: UACC-62
HT-29 = test system: HT-29
UACC-257 = test system: UACC-257
M19-MEL = test system: M19-MEL
SNB-19 = test system: SNB-19
BT-549 = test system: BT-549
MDA-MB-231 = test system: MDA-MB-231
SK-OV-3 = test system: SK-OV-3
SF-268 = test system: SF-268
T47D = test system: T47D
MCF7 = test system: MCF7
DMS-114 = test system: DMS-114
NCI-H23 = test system: NCI-H23
ACHN = test system: ACHN
PC-3 = test system: PC-3
SK-MEL-28 = test system: SK-MEL-28
LOX IMVI = test system: LOX IMVI
A498 = test system: A498
786-0 = test system: 786-0
OVCAR-3 = test system: OVCAR-3
EKVX = test system: EKVX
CAKI-1 = test system: CAKI-1
RXF 393 = test system: RXF 393
OVCAR-5 = test system: OVCAR-5
RPMI-8226 = test system: RPMI-8226
NCI/ADR-RES = test system: NCI/ADR-RES
HL-60 = test system: HL-60
HOP-92 = test system: HOP-92
RXF 631 = test system: RXF 631
SW-620 = test system: SW-620

N#CC(C(=O)/C(=N/Nc1nc(S)nn1N)C(C#N)c1ccccc1)c1ccccc1 (configuration not stated)
GI50 (OVCAR-8): > 100 µM (inactive) | GI50 (NCI-H460): > 100 µM (inactive) | GI50 (SF-295): > 100 µM (inactive) | GI50 (NCI-H522): > 100 µM (inactive) | GI50 (U-251): > 100 µM (inactive) | GI50 (A549): > 100 µM (inactive) | GI50 (HOP-62): > 100 µM (inactive) | GI50 (KM-20L2): > 100 µM (inactive) | GI50 (SR): > 100 µM (inactive) | GI50 (DMS-273): > 100 µM (inactive) | GI50 (DU-145): > 100 µM (inactive) | GI50 (SK-MEL-2): > 100 µM (inactive) | GI50 (XF498): > 100 µM (inactive) | GI50 (Hs-578T): > 100 µM (inactive) | GI50 (K562): > 100 µM (inactive) | GI50 (MDA-MB-435): > 100 µM (inactive) | GI50 (SK-MEL-5): > 100 µM (inactive) | GI50 (CCRF-CEM): > 100 µM (inactive) | GI50 (COLO 205): > 100 µM (inactive) | GI50 (HCT-116): > 100 µM (inactive) | GI50 (SF-539): > 100 µM (inactive) | GI50 (KM12): > 100 µM (inactive) | GI50 (Malme-3M): > 100 µM (inactive) | GI50 (LXFL 529): > 100 µM (inactive) | GI50 (HOP-18): 0.403 µM (active) | GI50 (DLD-1): > 100 µM (inactive) | GI50 (IGROV-1): > 100 µM (inactive) | GI50 (NCI-H226): > 100 µM (inactive) | GI50 (SN12C): > 100 µM (inactive) | GI50 (HCC 2998): > 100 µM (inactive) | GI50 (OVCAR-4): > 100 µM (inactive) | GI50 (SNB-78): > 100 µM (inactive) | GI50 (SNB-75): > 100 µM (inactive) | GI50 (M14): > 100 µM (inactive) | GI50 (TK-10): > 100 µM (inactive) | GI50 (HCT-15): > 100 µM | GI50 (UO-31): > 100 µM (inactive) | GI50 (UACC-62): > 100 µM (inactive) | GI50 (HT-29): > 100 µM (inactive) | GI50 (UACC-257): > 100 µM (inactive) | GI50 (M19-MEL): > 100 µM (inactive) | GI50 (SNB-19): > 100 µM (inactive) | GI50 (BT-549): > 100 µM (inactive) | GI50 (MDA-MB-231): > 100 µM (inactive) | GI50 (SK-OV-3): > 100 µM (inactive) | GI50 (SF-268): > 100 µM (inactive) | GI50 (T47D): > 100 µM (inactive) | GI50 (MCF7): > 100 µM (inactive) | GI50 (DMS-114): > 100 µM (inactive) | GI50 (NCI-H23): > 100 µM (inactive) | GI50 (ACHN): > 100 µM (inactive) | GI50 (PC-3): > 100 µM (inactive) | GI50 (SK-MEL-28): > 100 µM (inactive) | GI50 (LOX IMVI): > 100 µM (inactive) | GI50 (A498): > 100 µM (inactive) | GI50 (786-0): > 100 µM (inactive) | GI50 (OVCAR-3): > 100 µM (inactive) | GI50 (EKVX): > 100 µM (inactive) | GI50 (CAKI-1): > 100 µM (inactive) | GI50 (RXF 393): > 100 µM (inactive) | GI50 (OVCAR-5): > 100 µM (inactive) | GI50 (RPMI-8226): > 100 µM (inactive) | GI50 (NCI/ADR-RES): > 100 µM (inactive) | GI50 (HL-60): > 100 µM (inactive) | GI50 (HOP-92): > 100 µM (inactive) | GI50 (RXF 631): > 100 µM (inactive) | GI50 (SW-620): > 100 µM (inactive)
